Test: Measurement of stability (high-temperature, high-humidity and photostability tests; HPLC impurity content)
Format: physicochemical
Conditions: for total impurity / purity: 210 nm
Protocol: An appropriate amount of the Complex (IA) sample (prepared from example 2) was weighed and tiled on a clean culture dish at a thickness of ≤5 mm, and analyzed under the following conditions:
The test sample was placed under a high temperature condition (60±2° C.) for 10 d, the relative indexes were measured at the fifth and tenth days. […] If no significant change, the test at 40° C. was not necessary.
The test sample was placed under a 25° C. and RH 90%±5% condition for 10 d, and the sample were measured at the fifth and tenth days. Test items should include a moisture-absorption weight gain. If weighting percentage of moisture absorption was more than 5%, the test should be carried out under a 25° C. and RH 75%±5% condition using the same method; If weighting percentage of moisture absorption was less than 5%, and other inspection items met the requirements, the test was not necessary. The constant humidity condition can be realized by adopting constant temperature humidity chamber or placing a saturated saline solution under a closed container. […]
The test sample was placed in light box or other suitable light vessel under a 4500 Lx±500 Lx of illuminance condition for 10 d, and the sample were measured at the fifth and tenth days.
The impurity content of the sample was calculated by the normalization method of peak area using an HPLC chromatographic instrument under the above condition, the analytic conditions were shown below:
The detection was performed on Agilent 1200DAD high pressure liquid chromatography spectrometer (Zorbax Eclipse Plus C18 150×4.6 mm chromatographic column).
The test condition of HPLC: the run time was 30 minutes (min); the column temperature was 35° C.; the detection was carried out at the wavelength of 210 nm and 225 nm;
Mobile phase: phase C: acetonitrile phase D: ultrapure water flow rate: 1.0 mL/min.
Gradient elution, the ratio of mobile phase was shown as table B.

[1] = high humidity (25° C., RH 90%±5%), 5 d, HPLC
[2] = high humidity (25° C., RH 90%±5%), 10 d, HPLC
[3] = high-temperature (60±2° C.), 5 d, HPLC
[4] = high-temperature (60±2° C.), 10 d, HPLC
[5] = illumination (4500 Lx±500 Lx), 5 d, HPLC
[6] = illumination (4500 Lx±500 Lx), 10 d, HPLC

CCOc1ccc(Cc2cc([C@]34OC[C@]([C@@H](C)O)(O3)[C@@H](O)[C@H](O)[C@H]4O)ccc2Cl)cc1 [compound (I-n) amorphism, (1R,2S,3S,4R,5S)-5-(4-chloro-3-(4-ethoxybenzyl)phenyl)-1-((1R)-1-hydroxyethyl)-6,8-dioxabicyclo[3.2.1]octane-2,3,4-triol]
total impurity (0 d, HPLC peak area normalization): 0.25%
purity (0 d, HPLC): 99.75%
appearance (high humidity (25° C., RH 90%±5%), 5 d): white bulk
purity [1]: 99.70%
total impurity [1]: 0.30%
appearance (high humidity (25° C., RH 90%±5%), 10 d): white bulk
purity [2]: 99.78%
total impurity [2]: 0.22%
purity [3]: 95.03%
total impurity [3]: 4.97%
purity [4]: 92.16%
total impurity [4]: 7.84%
stability (summary in words) (high-temperature, high humidity or illumination for 10 d, listed as compound (I-n) in amorphism form): poor stability
purity [5]: 99.69%
total impurity [5]: 0.31%
purity [6]: 99.72%
total impurity [6]: 0.28%

Reference: patent publication US10555930B2, “Complex of a glucopyranosyl derivative and preparation method and use thereof” (SUNSHINE LAKE PHARMA CO., LTD., priority 2015, dated 2020)
